Laboratory results from patent US8129398B2 (priority 2008, dated 2012).

target: T1, HIV-integrase (Human immunodeficiency virus type 1 group M subtype B, UniProt P12497); assay: HIV-Integrase Inhibition Activity (SPA bead integration assay with P33 labeled target DNA); type: biochemical; conditions: recombinant integrase, class symbols; read-out: in vitro activity
T1 construct: Recombinant integrase (0.26 ng) was incubated with the beads
In short: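 Biotinylated substrate DNA on streptavidin SPA beads loaded with recombinant integrase (90 min, 37° C), washed, then inhibitor plus 0.1 fmol P33-labeled target DNA added. Reaction stopped with 10 mM EDTA; integration measured as CPM by scintillation, giving IC50 ranks.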

SMILES | IC50 [nM]
CS(=O)(=O)N1CCN(C(=O)N2CCN(C(=O)C(=O)NC34CCC(CC3)Cn3c4nc(C(=O)NCc4ccc(F)cc4)c(O)c3=O)CC2)C1=O [Example 144, N-(4-Fluorobenzyl)-3-hydroxy-10-(((4-((3-(methylsulfonyl)-2-oxo-1-imidazolidinyl)carbonyl)-1-piperazinyl)(oxo)acetyl)amino)-4-oxo-4,6,7,8,9,10-hexahydro-7,10-ethanopyrimido[1,2-a]azepine-2-carboxamide] | < 10
CN(C)S(=O)(=O)N1CCN(C(=O)C(=O)NC23CCC(CC2)Cn2c3nc(C(=O)NCc3ccc(F)cc3)c(O)c2=O)CC1 [Example 145, 10-(((4-(Dimethylsulfamoyl)-1-piperazinyl)(oxo)acetyl)amino)-N-(4-fluorobenzyl)-3-hydroxy-4-oxo-4,6,7,8,9,10-hexahydro-7,10-ethanopyrimido[1,2-a]azepine-2-carboxamide] | < 10
Cc1noc(C)c1S(=O)(=O)N1CCN(C(=O)C(=O)NC23CCC(CC2)Cn2c3nc(C(=O)NCc3ccc(F)cc3)c(O)c2=O)CC1 [Example 146, 10-(((4-((3,5-Dimethyl-4-isoxazolyl)sulfonyl)-1-piperazinyl)(oxo)acetyl)amino)-N-(4-fluorobenzyl)-3-hydroxy-4-oxo-4,6,7,8,9,10-hexahydro-7,10-ethanopyrimido[1,2-a]azepine-2-carboxamide] | < 10
COC(=O)c1sccc1S(=O)(=O)N1CCN(C(=O)C(=O)NC23CCC(CC2)Cn2c3nc(C(=O)NCc3ccc(F)cc3)c(O)c2=O)CC1 [Example 147, Methyl 3-((4-(((2-((4-fluorobenzyl)carbamoyl)-3-hydroxy-4-oxo-6,7,8,9-tetrahydro-7,10-ethanopyrimido[1,2-a]azepin-10(4H)-yl)amino) (oxo)acetyl)-1-piperazinyl)sulfonyl)-2-thiophenecarboxylate] | < 10
Cn1cnc(S(=O)(=O)N2CCN(C(=O)C(=O)NC34CCC(CC3)Cn3c4nc(C(=O)NCc4ccc(F)cc4)c(O)c3=O)CC2)c1 [Example 148, N-(4-Fluorobenzyl)-3-hydroxy-10-(((4-((1-methyl-1H-imidazol-4-yl)sulfonyl)-1-piperazinyl)(oxo)acetyl)amino)-4-oxo-4,6,7,8,9,10-hexahydro-7,10-ethanopyrimido[1,2-a]azepine-2-carboxamide] | < 10
O=C(NC12CCC(CC1)Cn1c2nc(C(=O)NCc2ccc(F)cc2)c(O)c1=O)C(=O)N1CCN(S(=O)(=O)c2ccc(S(=O)(=O)N3CCOCC3)cc2)CC1 [Example 149, N-(4-Fluorobenzyl)-3-hydroxy-10-(((4-((4-(4-morpholinylsulfonyl)phenyl)sulfonyl)-1-piperazinyl)(oxo)acetyl)amino)-4-oxo-4,6,7,8,9,10-hexahydro-7,10-ethanopyrimido[1,2-a]azepine-2-carboxamide] | < 10
CN(C)C12CCC(CC1)Cn1c2nc(C(=O)NCc2ccc(F)cc2)c(O)c1=O [Example 150, 10-(Dimethylamino)-N-(4-fluorobenzyl)-3-hydroxy-4-oxo-4,6,7,8,9,10-hexahydro-7,10-ethanopyrimido[1,2-a]azepine-2-carboxamide] | > 100
CN(C(=O)C(=O)N1CCCC1)C12CCC(CC1)Cn1c2nc(C(=O)NCc2ccc(F)cc2)c(O)c1=O [Example 153, N-(4-Fluorobenzyl)-3-hydroxy-10-(methyl(oxo(1-pyrrolidinyl)acetyl)amino)-4-oxo-4,6,7,8,9,10-hexahydro-7,10-ethanopyrimido[1,2-a]azepine-2-carboxamide] | < 10
Cc1cc(C(=O)N(C)C23CCC(CC2)Cn2c3nc(C(=O)NCc3ccc(F)cc3)c(O)c2=O)no1 [Example 154, N-(4-Fluorobenzyl)-3-hydroxy-10-(methyl((5-methyl-3-isoxazolyl)carbonyl)amino)-4-oxo-4,6,7,8,9,10-hexahydro-7,10-ethanopyrimido[1,2-a]azepine-2-carboxamide] | < 10
CN(C12CCC(CC1)Cn1c2nc(C(=O)NCc2ccc(F)cc2)c(O)c1=O)S(C)(=O)=O [Example 155, N-(4-Fluorobenzyl)-3-hydroxy-10-(methyl(methylsulfonyl)amino)-4-oxo-4,6,7,8,9,10-hexahydro-7,10-ethanopyrimido[1,2-a]azepine-2-carboxamide] | < 10
Cc1cc(CNC(=O)c2nc3n(c(=O)c2O)CC2CCC3(N(C)C(=O)C(=O)N(C)C)CC2)ccc1F [Example 156, N-(2-((4-Fluoro-3-methylbenzyl)carbamoyl)-3-hydroxy-4-oxo-6,7,8,9-tetrahydro-7,10-ethanopyrimido[1,2-a]azepin-10(4H)-yl)-N,N′,N′-trimethylethanediamide] | < 10
CN(C)C(=O)C(=O)N(C)C12CCC(CC1)Cn1c2nc(C(=O)NCc2ccc(F)cc2)c(O)c1=O [Example 157, N-(2-((4-Fluorobenzyl)carbamoyl)-3-hydroxy-4-oxo-6,7,8,9-tetrahydro-7,10-ethanopyrimido[1,2-a]azepin-10(4H)-yl)-N,N′,N′-trimethylethanediamide] | < 10
CN(C)C(=O)C(=O)N(C)C12CCC(CC1)Cn1c2nc(C(=O)NCc2ccc(F)c(Cl)c2)c(O)c1=O [Example 158, N-(2-((3-Chloro-4-fluorobenzyl)carbamoyl)-3-hydroxy-4-oxo-6,7,8,9-tetrahydro-7,10-ethanopyrimido[1,2-a]azepin-10(4H)-yl)-N,N′,N′-trimethylethanediamide] | < 10
CN(C)C(=O)C(=O)N(C)C12CCC(CC1)Cn1c2nc(C(=O)NCc2ccc(F)c(F)c2)c(O)c1=O [Example 159, N-(2-((3,4-Difluorobenzyl)carbamoyl)-3-hydroxy-4-oxo-6,7,8,9-tetrahydro-7,10-ethanopyrimido[1,2-a]azepin-10(4H)-yl)-N,N′,N′-trimethylethanediamide] | < 10
COc1cc(CNC(=O)c2nc3n(c(=O)c2O)CC2CCC3(N(C)C(=O)C(=O)N(C)C)CC2)ccc1F [Example 160, N-(2-((4-Fluoro-3-methoxybenzyl)carbamoyl)-3-hydroxy-4-oxo-6,7,8,9-tetrahydro-7,10-ethanopyrimido[1,2-a]azepin-10(4H)-yl)-N,N′,N′-trimethylethanediamide] | < 10
CN(C)C(=O)C(=O)N(C)C12CCC(CC1)Cn1c2nc(C(=O)NCc2ccc3c(c2)OCO3)c(O)c1=O [Example 161, N-(2-((1,3-Benzodioxol-5-ylmethyl)carbamoyl)-3-hydroxy-4-oxo-6,7,8,9-tetrahydro-7,10-ethanopyrimido[1,2-a]azepin-10(4H)-yl)-N,N′,N′-trimethylethanediamide] | < 10
Cc1c(F)cc(Br)c(CNC(=O)c2nc3n(c(=O)c2O)CC2CCC3(N(C)C(=O)C(=O)N(C)C)CC2)c1Br [Example 162, N-(2-((2,6-Dibromo-4-fluoro-3-methylbenzyl)carbamoyl)-3-hydroxy-4-oxo-6,7,8,9-tetrahydro-7,10-ethanopyrimido[1,2-a]azepin-10(4H)-yl)-N,N′,N′-trimethylethanediamide] | < 10
CN(C(=O)C(=O)N1CC[C@@H](F)C1)C12CCC(CC1)Cn1c2nc(C(=O)NCc2ccc(F)cc2)c(O)c1=O [Example 163, N-(4-Fluorobenzyl)-10-((((3R)-3-fluoro-1-pyrrolidinyl)(oxo)acetyl)(methyl)amino)-3-hydroxy-4-oxo-4,6,7,8,9,10-hexahydro-7,10-ethanopyrimido[1,2-a]azepine-2-carboxamide] | < 10
Cc1cc(CNC(=O)c2nc3n(c(=O)c2O)CC2CCC3(N(C)C(=O)C(=O)N3CC[C@@H](F)C3)CC2)ccc1F [Example 164, N-(4-Fluoro-3-methylbenzyl)-10-((((3R)-3-fluoro-1-pyrrolidinyl)(oxo)acetyl)(methyl)amino)-3-hydroxy-4-oxo-4,6,7,8,9,10-hexahydro-7,10-ethanopyrimido[1,2-a]azepine-2-carboxamide] | < 10
CN(CC1CCCO1)C(=O)C(=O)N(C)C12CCC(CC1)Cn1c2nc(C(=O)NCc2ccc(F)cc2)c(O)c1=O (stereo not drawn) [Example 165, N-(2-((4-Fluorobenzyl)carbamoyl)-3-hydroxy-4-oxo-6,7,8,9-tetrahydro-7,10-ethanopyrimido[1,2-a]azepin-10(4H)-yl)-N,N′-dimethyl-N′-(tetrahydro-2-furanylmethyl)ethanediamide] | < 10
Cc1cc(CNC(=O)c2nc3n(c(=O)c2O)CC2CCC3(N(C)C(=O)C(=O)N(C)CC3CCCO3)CC2)ccc1F (stereo not drawn) [Example 166, N-(2-((4-Fluoro-3-methylbenzyl)carbamoyl)-3-hydroxy-4-oxo-6,7,8,9-tetrahydro-7,10-ethanopyrimido[1,2-a]azepin-10(4H)-yl)-N,N′-dimethyl-N′-(tetrahydro-2-furanylmethyl)ethanediamide] | < 10
COCCN(C)C(=O)C(=O)N(C)C12CCC(CC1)Cn1c2nc(C(=O)NCc2ccc(F)cc2)c(O)c1=O [Example 167, N-(2-((4-Fluorobenzyl)carbamoyl)-3-hydroxy-4-oxo-6,7,8,9-tetrahydro-7,10-ethanopyrimido[1,2-a]azepin-10(4H)-yl)-N′-(2-methoxyethyl)-N,N′-dimethylethanediamide] | < 10
COCCN(C)C(=O)C(=O)N(C)C12CCC(CC1)Cn1c2nc(C(=O)NCc2ccc(F)c(C)c2)c(O)c1=O [Example 168, N-(2-((4-Fluoro-3-methylbenzyl)carbamoyl)-3-hydroxy-4-oxo-6,7,8,9-tetrahydro-7,10-ethanopyrimido[1,2-a]azepin-10(4H)-yl)-N′-(2-methoxyethyl)-N,N′-dimethylethanediamide] | < 10
Cc1nn(C)cc1CN(C)C(=O)C(=O)N(C)C12CCC(CC1)Cn1c2nc(C(=O)NCc2ccc(F)cc2)c(O)c1=O [Example 169, N-((1,3-Dimethyl-1H-pyrazol-4-yl)methyl)-N′-(2-((4-fluorobenzyl)carbamoyl)-3-hydroxy-4-oxo-6,7,8,9-tetrahydro-7,10-ethanopyrimido[1,2-a]azepin-10(4H)-yl)-N,N′-dimethylethanediamide] | < 10
